# Results taken from patent US9556181B2, “Substituted pyrazolopyrimidinylamino-indazoles” (BAYER PHARMA AKTIENGESELLSCHAFT, priority 2013, dated 2017).
# Target: human full-length MKNK1 (Homo sapiens (Human), UniProt Q9BUB5, T344D)
# Experiment: MKNK1 kinase high ATP assay (TR-FRET)
# Format: biochemical
# Conditions: high ATP (2 mM final), 15 min preincubation with enzyme
# Experimental: MKNK1 Kinase High ATP Assay
# MKNK1-inhibitory activity at high ATP of compounds of the present invention after their preincubation with MKNK1 was quantified employing the TR-FRET-based MKNK1 high ATP assay as described in the following paragraphs.
# A recombinant fusion protein of Glutathione-S-Transferase (GST, N-terminally) and human full-length MKNK1 (amino acids 1-424 and T344D of accession number BAA 19885.1), expressed in insect cells using baculovirus expression system and purified via glutathione sepharose affinity chromatography, was purchased from Carna Biosciences (product no 02-145) and used as enzyme. As substrate for the kinase reaction the biotinylated peptide biotin-Ahx-IKKRKLTRRKSLKG (C-terminus in amide form) was used, which can be purchased e.g. from the company Biosyntan (Berlin-Buch, Germany).
# For the assay 50 nL of a 100 fold concentrated solution of the test compound in DMSO was pipetted into a black low volume 384 well microtiter plate (Greiner Bio-One, Frickenhausen, Germany), 2 μL of a solution of MKNK1 in aqueous assay buffer [50 mM HEPES pH 7.5, 5 mM MgCl2, 1.0 mM dithiothreitol, 0.005% (v/v) Nonidet-P40 (Sigma)] was added and the mixture was incubated for 15 min at 22° C. to allow pre-binding of the test compounds to the enzyme before the start of the kinase reaction. Then the kinase reaction was started by the addition of 3 μL of a solution of adenosine-tri-phosphate (ATP, 3.3 mM=>final conc. in the 5 μL assay volume is 2 mM) and substrate (0.1 μM=>final conc. in the 5 μL assay volume is 0.06 μM) in assay buffer and the resulting mixture was incubated for a reaction time of 30 min at 22° C. The concentration of MKNK1 was adjusted depending of the activity of the enzyme lot and was chosen appropriate to have the assay in the linear range, typical concentrations were in the range of 0.003 μg/mL. The reaction was stopped by the addition of 5 μL of a solution of TR-FRET detection reagents (5 nM streptavidine-XL665 [Cisbio Bioassays, Codolet, France] and 1 nM anti-ribosomal protein S6 (pSer236)-antibody from Invitrogen [#44921G] and 1 nM LANCE EU-W1024 labeled ProteinG [Perkin-Elmer, product no. AD0071]) in an aqueous EDTA-solution (100 mM EDTA, 0.1% (w/v) bovine serum albumin in 50 mM HEPES pH 7.5).
# The resulting mixture was incubated for 1 h at 22° C. to allow the formation of complex between the phosphorylated biotinylated peptide and the detection reagents. Subsequently the amount of phosphorylated substrate was evaluated by measurement of the resonance energy transfer from the Eu-chelate to the streptavidine-XL. Therefore, the fluorescence emissions at 620 nm and 665 nm after excitation at 350 nm were measured in a TR-FRET reader, e.g. a Rubystar (BMG Labtechnologies, Offenburg, Germany) or a Viewlux (Perkin-Elmer). The ratio of the emissions at 665 nm and at […] was taken as the measure for the amount of phosphorylated substrate. The data were normalised (enzyme reaction without inhibitor=0% inhibition, all other assay components but no enzyme=100% inhibition).
# human full-length MKNK1, sequence (Q9BUB5 other isoform, or with tags, fused parts or gaps T344D): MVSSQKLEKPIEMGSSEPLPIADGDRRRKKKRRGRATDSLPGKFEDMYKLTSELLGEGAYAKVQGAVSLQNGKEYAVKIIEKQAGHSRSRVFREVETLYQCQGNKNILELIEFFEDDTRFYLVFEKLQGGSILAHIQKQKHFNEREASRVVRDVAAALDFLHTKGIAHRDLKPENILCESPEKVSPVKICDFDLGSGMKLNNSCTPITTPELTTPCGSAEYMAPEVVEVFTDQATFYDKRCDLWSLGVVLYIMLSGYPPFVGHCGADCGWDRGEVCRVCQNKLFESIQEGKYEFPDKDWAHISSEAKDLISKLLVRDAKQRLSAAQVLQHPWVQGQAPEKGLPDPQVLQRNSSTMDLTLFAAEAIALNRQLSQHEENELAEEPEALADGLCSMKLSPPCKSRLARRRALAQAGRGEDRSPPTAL
row,SMILES,IC50
1,"CC(C)Oc1cc2[nH]ncc2cc1Nc1ncnc2[nH]nc(-c3ccccc3)c12 [Example 18, N-(6-Isopropoxy-1H-indazol-5-yl)-3-phenyl-1H-pyrazolo[3,4-d]pyrimidin-4-amine]",0.019 µM
2,"COc1cc2[nH]ncc2cc1Nc1ncnc2[nH]nc(-c3cccnc3)c12 [Example 10, N-(6-Methoxy-1H-indazol-5-yl)-3-(pyridin-3-yl)-1H-pyrazolo[3,4-d]pyrimidin-4-amine]",0.006 µM
3,"c1cncc(-c2n[nH]c3ncnc(Nc4ccc5[nH]ncc5c4)c23)c1 [Example 9, N-(1H-Indazol-5-yl)-3-(pyridin-3-yl)-1H-pyrazolo[3,4-d]pyrimidin-4-amine]",0.008 µM
4,"COc1cc2[nH]ncc2cc1Nc1ncnc2[nH]nc(-c3ccncc3)c12 [Example 16, N-(6-Methoxy-1H-indazol-5-yl)-3-(pyridin-4-yl)-1H-pyrazolo[3,4-d]pyrimidin-4-amine]",0.002 µM
5,"Fc1cc2[nH]ncc2cc1Nc1ncnc2[nH]nc(-c3ccccc3)c12 [Example 8, N-(6-fluoro-1H-indazol-5-yl)-3-phenyl-1H-pyrazolo[3,4-d]pyrimidin-4-amine]",0.015 µM
6,"CC(C)Oc1cc2[nH]ncc2cc1Nc1ncnc2[nH]nc(-c3ccncc3)c12 [Example 21, N-(6-Isopropoxy-1H-indazol-5-yl)-3-(pyridin-4-yl)-1H-pyrazolo[3,4-d]pyrimidin-4-amine]",0.027 µM
7,"COc1cc2[nH]ncc2cc1Nc1ncnc2[nH]nc(Br)c12 [Example 4, 3-Bromo-N-(6-methoxy-1H-indazol-5-yl)-1H-pyrazolo[3,4-d]pyrimidin-4-amine]",0.001 µM
8,"Fc1cc2[nH]ncc2cc1Nc1ncnc2[nH]nc(Br)c12 [Example 5, 3-Bromo-N-(6-fluoro-1H-indazol-5-yl)-1H-pyrazolo[3,4-d]pyrimidin-4-amine]",0.012 µM
9,"Fc1ccc(-c2n[nH]c3ncnc(Nc4ccc5[nH]ncc5c4)c23)cc1 [Example 12, 3-(4-Fluorophenyl)-N-(1H-indazol-5-yl)-1H-pyrazolo[3,4-d]pyrimidin-4-amine]",0.012 µM
10,"c1ccc(-c2n[nH]c3ncnc(Nc4ccc5[nH]ncc5c4)c23)cc1 [Example 15, N-(1H-Indazol-5-yl)-3-phenyl-1H-pyrazolo[3,4-d]pyrimidin-4-amine]",0.026 µM
11,"CC(C)Oc1cc2[nH]ncc2cc1Nc1ncnc2[nH]nc(-c3ccc(F)cc3)c12 [Example 19, 3-(4-Fluorophenyl)-N-(6-isopropoxy-1H-indazol-5-yl)-1H-pyrazolo[3,4-d]pyrimidin-4-amine]",0.026 µM
12,"CC(C)Oc1cc2[nH]ncc2cc1Nc1ncnc2[nH]nc(-c3cccnc3)c12 [Example 20, N-(6-Isopropoxy-1H-indazol-5-yl)-3-(pyridin-3-yl)-1H-pyrazolo[3,4-d]pyrimidin-4-amine]",0.063 µM
13,"CC(C)Oc1cc2[nH]ncc2cc1Nc1ncnc2[nH]nc(Br)c12 [Example 17, 3-Bromo-N-(6-isopropoxy-1H-indazol-5-yl)-1H-pyrazolo[3,4-d]pyrimidin-4-amine]",0.001 µM
14,"c1nc(Nc2ccc3[nH]ncc3c2)c2cn[nH]c2n1 [Example 1, N-(1H-Indazol-5-yl)-1H-pyrazolo[3,4-d]pyrimidin-4-amine]",0.117 µM
15,"COc1cc2[nH]ncc2cc1Nc1ncnc2[nH]nc(-c3ccccc3)c12 [Example 7, N-(6-methoxy-1H-indazol-5-yl)-3-phenyl-1H-pyrazolo[3,4-d]pyrimidin-4-amine]",0.003 µM
16,"CC(C)Oc1cc2[nH]ncc2cc1Nc1ncnc2[nH]ncc12 [Example 3, N-[6-(Propan-2-yloxy)-1H-indazol-5-yl]-1H-pyrazolo[3,4-d]pyrimidin-4-amine]",0.531 µM
17,"Fc1cc2[nH]ncc2cc1Nc1ncnc2[nH]nc(-c3cccnc3)c12 [Example 11, N-(6-fluoro-1H-indazol-5-yl)-3-(pyridin-3-yl)-1H-pyrazolo[3,4-d]pyrimidin-4-amine]",0.008 µM
18,"Brc1n[nH]c2ncnc(Nc3ccc4[nH]ncc4c3)c12 [Example 6, 3-Bromo-N-(1H-indazol-5-yl)-1H-pyrazolo[3,4-d]pyrimidin-4-amine]",0.014 µM
19,"Fc1ccc(-c2n[nH]c3ncnc(Nc4cc5cn[nH]c5cc4F)c23)cc1 [Example 14, N-(6-Fluoro-1H-indazol-5-yl)-3-(4-fluorophenyl)-1H-pyrazolo[3,4-d]pyrimidin-4-amine]",0.012 µM
20,"COc1cc2[nH]ncc2cc1Nc1ncnc2[nH]nc(-c3ccc(F)cc3)c12 [Example 13, 3-(4-Fluorophenyl)-N-(6-methoxy-1H-indazol-5-yl)-1H-pyrazolo[3,4-d]pyrimidin-4-amine]",0.002 µM
